Assay results published in patent publication US20060019241A1, “Na+ and CI-coupled transport system for endogenous opioid peptides” (priority 2004, published 2006).
“Also recorded” adds a separate entry of the source.

tested on: deltorphin II transport system in Tat-ARPE-19 cells; assay: Inhibition of [^3H]deltorphin II uptake in Tat-ARPE-19 cells; type: cell-based, human; details: RPE cells
Excerpt: (§1) Stable transfection of ARPE-19 cells with pcDNA-Tat cDNA. The pGEM2-Tat cDNA construct contained as the insert a 295 basepair (bp) fragment encoding the first exon of HIV-1 Tat gene joined to a 145 bp pET3A transcription terminator. The entire insert (440 bp) was removed from the construct by digestion with PstI and EcoRI and ligated into the multiple cloning region of pcDNA3.1 (−) vector at PstI/EcoRI site so that the insert is downstream of the cytomegalovirus (CMV) promoter. The resultant construct was sequenced to confirm the orientation of the insert. This construct was electroporated into ARPE-19 cells and the stably transfected cell clones were isolated in the presence of Geneticin (G418). To serve as a control, empty pcDNA3.1 vector was electroporated into ARPE-19 cells in an identical manner and the clones harboring the vector were selected by G418 resistance.
(§2) Uptake measurements in control ARPE-19 cells and Tat-ARPE-19 cells. Control ARPE-19 cells and Tat-ARPE-19 cells were maintained in 75-cm^2 culture flasks in Dulbecco's modified Eagle's medium/F12 medium (1:1, volume/volume (v/v)) in the presence of fetal bovine serum (10%) and G418 (100 μg/ml). For uptake measurements, cells were released by trypsin treatment and seeded in 24-well culture plates at an initial density of 0.1×10^6 cells/well. The culture medium was replaced with fresh medium on the second day following the initial seeding and uptake measurements were made on the third day. […] After incubation at 37° C. for a desired time, uptake was terminated by the removal of the medium and washing of the cells with ice-cold uptake buffer. The cells were then dissolved in 1% SDS in 0.2 M NaOH and used for measurement of radioactivity. The uptake buffer in most experiments was 25 mM Hepes/Tris (pH 7.5), containing 140 mM NaCl, 5.4 mM KCl, 1.8 mM CaCl2, 0.8 mM MgSO4 and 5 mM glucose.
When the influence of Na^+ on the uptake process was investigated, the concentration of NaCl in the uptake buffer was adjusted, as desired, by isoosmotically replacing NaCl with N-methyl-D-glucamine chloride. To assess the influence of Cl^− on the uptake process, the composition of the uptake medium was modified by replacing KCl and CaCl2 with equimolar concentrations of potassium gluconate and calcium gluconate and the concentration of NaCl was adjusted, as desired, by iso-osmotically replacing NaCl with sodium gluconate. Saturation kinetics were analysed by fitting the data to the Michaelis-Menten equation. The Michaelis-Menten constant, Kt, was calculated by non-linear regression analysis and then confirmed by linear regression. Na^+- and Cl^−-activation kinetics were analyzed by fitting the data to the Hill equation and the Hill coefficients for Na^+ and Cl^− (h; the number of Na^+ and Cl^− ions involved in the activation process) and the K0.5 values (the concentration of Na^+ and Cl^−-needed for half-maximal activation) were determined from the analysis. Again, these constants were first calculated by non-linear regression methods and subsequently confirmed by linear regression methods. Experiments were repeated three times in duplicate and the results are given as means±S.E.M.
(§3) Substrate specificity of the deltorphin transport system. […] These peptides consisted of 4-13 amino acids.
Relative affinities of endogenous opioid peptides for the transport system.

Compound | fold higher affinity than the shorter dynorphins (six to nine amino acids) [fold]
Tyr-Gly-Gly-Phe-Leu-Arg-Arg-IIe-Arg-Pro-Lys-Leu-Lys (YGGFLRRIRPKLK) [Dynorphin A (1-13)] | ~10

same assay, conditions: Tat-ARPE-19 / RPE cells; [^3H]deltorphin II 50 nM; compound 1 mM

Compound | competition with deltorphin for the uptake process (in words)
Gly-Gly-Gly | did not compete; also recorded: significant stimulation
Tyr-Gly-Gly-Phe-Leu [Leu-enkephalin] | marked inhibition
Tyr-Gly-Gly-Phe-Met [Met-enkephalin] | marked inhibition

same assay, conditions: Tat-ARPE-19 cells; [^3H]deltorphin II 50 nM, 30 minutes, NaCl; inhibitor 1 mM

Compound | [^3H] Deltorphin II uptake [pmol/mg protein/30 min]
N[C@H](Cc1ccc(O)cc1)C(=O)O [D-Tyrosine] | 4.05 ± 0.09
Gly-Gly-Gly | 9.68 ± 0.39
Tyr-Gly-Gly-Phe-Leu [Leu-enkephalin] | 0.15 ± 0.01
Tyr-Gly-Gly-Phe-Leu-Arg-Arg-IIe-Arg-Pro-Lys-Leu-Lys (YGGFLRRIRPKLK) [Dynorphin A (1-13)] | 0.07 ± 0.01
Tyr-Gly-Gly-Phe-Met [Met-enkephalin] | 0.50 ± 0.01
YGGFLR [Dynorphin A (1-6), Tyr-Gly-Gly-Phe-Leu-Arg] | 0.12 ± 0.00
YGGFLRR [Dynorphin A (1-7), Tyr-Gly-Gly-Phe-Leu-Arg-Arg] | 0.10 ± 0.02
YGGFMRF [[Arg^6, Phe^7] Met-enkephalin, Tyr-Gly-Gly-Phe-Met-Arg-Phe] | 0.11 ± 0.01
YGGFMRGL [[Arg^6, Gly^7, Leu^8[ Met-enkephalin] | 0.09 ± 0.01

same assay, conditions: Tat-ARPE-19 cells; [^3H]deltorphin II 50 nM, 30 minutes, NaCl; inhibitor 1 mM; control = 100

Compound | [^3H] Deltorphin II uptake (%) of control [%]
N[C@H](Cc1ccc(O)cc1)C(=O)O [D-Tyrosine] | 52
Gly-Gly-Gly | 125
Tyr-Gly-Gly-Phe-Leu [Leu-enkephalin] | 2
Tyr-Gly-Gly-Phe-Leu-Arg-Arg-IIe-Arg-Pro-Lys-Leu-Lys (YGGFLRRIRPKLK) [Dynorphin A (1-13)] | 1
Tyr-Gly-Gly-Phe-Met [Met-enkephalin] | 6
YGGFLR [Dynorphin A (1-6), Tyr-Gly-Gly-Phe-Leu-Arg] | 2
YGGFLRR [Dynorphin A (1-7), Tyr-Gly-Gly-Phe-Leu-Arg-Arg] | 1
YGGFMRF [[Arg^6, Phe^7] Met-enkephalin, Tyr-Gly-Gly-Phe-Met-Arg-Phe] | 1
YGGFMRGL [[Arg^6, Gly^7, Leu^8[ Met-enkephalin] | 1

tested on: deltorphin II transport system in control ARPE-19 cells; assay: Inhibition of [^3H]deltorphin II uptake in control ARPE-19 cells; type: cell-based, human; details: control ARPE-19 cells (pcDNA vector alone); [^3H]deltorphin II 50 nM, 30 minutes, NaCl; peptide/antagonist 1 mM
Excerpt: as §1, §2, §3

Compound | [^3H] Deltorphin II uptake [pmol/mg protein/30 min]
C=CCN1CC[C@]23c4c5ccc(O)c4O[C@H]2C(=O)CC[C@@]3(O)[C@H]1C5 [Naloxone] | 1.01 ± 0.00
O=C1CC[C@@]2(O)[C@H]3Cc4ccc(O)c5c4[C@@]2(CCN3CC2CC2)[C@H]1O5 [Naltrexone] | 1.12 ± 0.02
Tyr-Gly-Gly-Phe-Leu-Arg-Arg-IIe-Arg-Pro-Lys-Leu-Lys (YGGFLRRIRPKLK) [Dynorphin A (1-13)] | 0.04 ± 0.001
Tyr-Gly-Gly-Phe-Met [Met-enkephalin] | 0.06 ± 0.004
YGGFLR [Dynorphin A (1-6), Tyr-Gly-Gly-Phe-Leu-Arg] | 0.06 ± 0.001
YGGFLRR [Dynorphin A (1-7), Tyr-Gly-Gly-Phe-Leu-Arg-Arg] | 0.05 ± 0.002
YGGFMRF [[Arg^6, Phe^7] Met-enkephalin, Tyr-Gly-Gly-Phe-Met-Arg-Phe] | 0.05 ± 0.001
YGGFMRGL [[Arg^6, Gly^7, Leu^8[ Met-enkephalin] | 0.04 ± 0.001

same assay, conditions: control ARPE-19 cells; [^3H]deltorphin II 50 nM, 30 minutes, NaCl; peptide/antagonist 1 mM; control = 100

Compound | [^3H] Deltorphin II uptake (%) of control [%]
C=CCN1CC[C@]23c4c5ccc(O)c4O[C@H]2C(=O)CC[C@@]3(O)[C@H]1C5 [Naloxone] | 94
O=C1CC[C@@]2(O)[C@H]3Cc4ccc(O)c5c4[C@@]2(CCN3CC2CC2)[C@H]1O5 [Naltrexone] | 104
Tyr-Gly-Gly-Phe-Leu-Arg-Arg-IIe-Arg-Pro-Lys-Leu-Lys (YGGFLRRIRPKLK) [Dynorphin A (1-13)] | 4
Tyr-Gly-Gly-Phe-Met [Met-enkephalin] | 5
YGGFLR [Dynorphin A (1-6), Tyr-Gly-Gly-Phe-Leu-Arg] | 5
YGGFLRR [Dynorphin A (1-7), Tyr-Gly-Gly-Phe-Leu-Arg-Arg] | 5
YGGFMRF [[Arg^6, Phe^7] Met-enkephalin, Tyr-Gly-Gly-Phe-Met-Arg-Phe] | 4
YGGFMRGL [[Arg^6, Gly^7, Leu^8[ Met-enkephalin] | 4

tested on: enkephalin/endorphin transport system in SK—N—SH cells; assay: [^3H]deltorphin II uptake in SK—N—SH cells, effect of peptides and amino acids; type: cell-based, human; details: 1 mM Gly-Gly-Ile
Method: as §2
Since enkephalins and endorphins are relevant to pain perception and to further provide evidence in support of a role for the transport system in opioidergic neurotransmission, the human neuronal cell line SK—N—SH was tested for expression of the transport system. […] Unless otherwise specified, procedures are as detailed in Example 1.
The concentration of enkephalins and dynorphins was 1 mM.
Finally, the relative affinity of various enkephalins and dynorphins for the transport system in SK—N—SH cells was determined.
To the further characterize the opioid transport of the present invention, various specific peptides that act as positive modulators of the enkephalin/endorphin transport system in the human neuronal cell line SK—N—SH were identified. Unless otherwise specified, procedures are as detailed in Example 1. […] Uptake was measured in the presence of NaCl for 30 minutes. The concentration of the dipeptides was 1 mM.
Uptake was measured in the presence of NaCl for 30 minutes. The concentration of the tripeptides was 1 mM.
Unless otherwise specified, procedures are as described in more detail in Example 1.
The dose-response relationship for the inhibition of the enkephalin/endorphin transport system by L-Lysine and its methyl and ethyl esters is shown in FIG. 15.

Compound | influence on kinetic parameters of deltorphin II uptake
Gly-Gly-Ile | increasing the maximal velocity of the system without affecting the affinity for its substrate

same assay, conditions: [^3H]deltorphin II 25 nM, NaCl, 30 minutes, compound 1 mM

Compound | Deltorphin II uptake [pmol/30 min/mg protein]
NCCCCCN [1,5-diaminopentane] | 3.24 ± 0.16
NCCCCCC(=O)O [6-amino hexanoic acid] | 2.92 ± 0.18
NCCCC[C@@H](N)C(=O)O [D-Lys, D-lysine] | 2.60 ± 0.31
NCCCC(=O)O [GABA] | 2.62 ± 0.13
NCCCCCCN [Hexamethylenediamine] | 2.83 ± 0.13
N=C(N)NCCC[C@H](N)C(=O)O [L-Arg, L-arginine] | 1.46 ± 0.12

same assay, conditions: [^3H]deltorphin II 25 nM, NaCl, 30 minutes, test substance 1 mM

Compound | effect on [^3H]deltorphin II uptake (in words)
NCCCC[C@@H](N)C(=O)O [D-Lys, D-lysine] | no effect
N[C@H](Cc1ccc(O)cc1)C(=O)O [D-Tyrosine] | significant inhibition
N=C(N)NCCC[C@H](N)C(=O)O [L-Arg, L-arginine] | significant inhibition
Gly-Gly-Gly | ability to stimulate the uptake
Gly-Gly-Ile | ability to stimulate the uptake; also recorded: stimulated

same assay, conditions: [^3H]deltorphin II 25 nM, peptide 1 mM

Compound | stimulation of deltorphin II uptake
Gly-Gly-Ile | 6- to 8 fold

same assay, conditions: read-out: affinity for the transport system (concentration-dependent inhibition of [^3H]deltorphin II uptake), [^3H]deltorphin II 25 nM

Compound | IC50 [µM]
Tyr-Gly-Gly-Phe-Leu [Leu-enkephalin] | 7.8 ± 1.2
Tyr-Gly-Gly-Phe-Leu-Arg-Arg-IIe-Arg-Pro-Lys-Leu-Lys (YGGFLRRIRPKLK) [Dynorphin A (1-13)] | 0.15 ± 0.01
Tyr-Gly-Gly-Phe-Met [Met-enkephalin] | 10.7 ± 3.1
YGGFLR [Dynorphin A (1-6), Tyr-Gly-Gly-Phe-Leu-Arg] | 3.5 ± 0.4
YGGFLRR [Dynorphin A (1-7), Tyr-Gly-Gly-Phe-Leu-Arg-Arg] | 4.6 ± 1.1
